This is an account of results in publication PMC11740271 (Annals of neurology, 2024).

“And” between values parts separate entries of the source, which are not always exact repeats. Identical values can stand only once. Like-named read-outs stand apart in the source and are kept apart here.

One data set relates to TMEV-induced seizures. The following applies: mice; doses as in Table S14; cited from earlier work.
Data set [1] deals with 6 Hz (44 mA) seizures. The following applies: mice, i.p.; from literature ED50/TD50, ref as in Table S11; cited from earlier work.
The test system of data set [2] is corneal kindled seizures. Conditions: mice, i.p.; from literature ED50/TD50, ref as in Table S11; cited from earlier work.
In data set [3] the test system is GLT-1. The experiment in a line: GLT-1 expression in mouse hippocampus. Format: in vivo. The following applies: C57BL/6J mice.
Data set [4] deals with GLT-1. The experiment in a line: GLT-1 expression in mouse cortex. The format is in vivo. Conditions: C57BL/6 mice.
Data set [5] has as its system motor function and coordination. The data set can be described thus: Rotarod test in mice. Format: in vivo. The following applies: male mice (C57BL/6J), i.p., PT 0.5 h; 95% CI in parentheses.
The test system of data set [6] is 6 Hz (44 mA) seizures. The data set can be described thus: 6 Hz. Format: in vivo, mice. Conditions: Mus musculus, ip, 1 h, read-out: ED50, 6 Hz (44 mA).
Data set [7] relates to GLT-1. The data set can be described thus: GLT-1 expression in neuron-glia cultures. Conditions: 14 DIV neuron-glia cultures, 72 h. The format is cell-based, rat.
The test system of the next data set is EAAT1. Conditions: cited from earlier work.
For another data set, the system named is EAAT3. Conditions: cited from earlier work.
Data set [8] concerns hippocampal paroxysmal discharges (HPDs). The experiment in a line: Intra-hippocampal kainate mouse. The format is in vivo. Conditions: male mice, 50 mg/kg i.p., 1 h post-drug, mean ± SEM.
The next data set is described as follows: Minimal motor impairment. Format: in vivo, rats. The following applies: Sprague-Dawley, rat, in vivo, ip.
The subject of data set [9] is minimal motor impairment (ataxia). The data set can be described thus: Minimal motor impairment. The format is in vivo, rats. The following applies: i.p.
The subject of data set [10] is autonomic, neuromuscular, sensorimotor and behavioral functions. The data set can be described thus: Modified Irwin test in rats. The format is in vivo. Conditions: male rats, i.p.
Data set [11] has as its system corneal kindled seizures. The experiment in a line: Corneal kindled mouse model. The format is in vivo, mice. Conditions: ip, read-out: ED50, CKM.

On to `Cc1ccsc1C(=CCCN1CCC[C@@H](C(=O)O)C1)c1sccc1C` [Tiagabine], for which, in the data set on TMEV-induced seizures, the “effect in the TMEV model” value is “significantly reduced seizure burden”. Besides, the “PI, 6 Hz, 44 mA (reference ASMs)” value in the data set with 6 Hz (44 mA) seizures [1] was 6.
As for `COC[C@@H](NC(C)=O)C(=O)NCc1ccccc1` [Lacosamide], in the data set with TMEV-induced seizures, the “effect in the TMEV model” value is “significantly reduced seizure burden”.
On to `CCOC(=O)Nc1ccc(NCc2ccc(F)cc2)cc1N` [Ezogabine], for which the “PI, CKM (reference ASMs)” value in the data set on corneal kindled seizures [2] was 1.5.
On to `NC(=O)N1c2ccccc2C=Cc2ccccc21` [Carbamazepine], for which, in the data set with TMEV-induced seizures, the “effect in the TMEV model” value is on record as “ineffective”.
`C=C(C)[C@@H]1CCC(C)=C[C@H]1c1c(O)cc(CCCCC)cc1O` [Cannabidiol]: the “effect in the TMEV model” value in the data set with TMEV-induced seizures was “effectively reduced TMEV-induced seizures”.
Take `CN(C)CCC=C1c2ccccc2CCc2ccccc21` [amitriptyline, reference compound]: the “GLT-1 signal in the hippocampus (qualitative confocal microscopy)” value with GLT-1 [3] (10 mg/kg i.p. QD for 7 days) was “strong increase”. Moreover, in the data set with GLT-1 [4] (10 mg/kg i.p. for 7 days, P < 0.05), the “GLT-1 protein expression in brain lysates (quantitative Western blot)” value was “significant increase”.
Consider `CCCC(CCC)C(=O)O` [Valproate], for which the “effect in the TMEV model” value in the data set with TMEV-induced seizures is on record as “significantly reduced seizure burden”.
Regarding `C[C@H](C(=O)NCc1ccccc1)N1C(=O)CCC1=O` [(R)-AS-1, (R)-N-benzyl-2-(2,5-dioxopyrrolidin-1-yl)propanamide], the “TD50, rotarod test” value in [5] is listed as 168.2 (117.4–242.0) mg/kg. In addition, the ED50 with 6 Hz (44 mA) seizures [6] was determined as 65.9 mg/kg; with corneal kindled seizures [11] (1 h), 38.2 mg/kg; in the data set with corneal kindled seizures [11] ([…]), 40.5 mg/kg. Further, in the data set on GLT-1 [7] (100 nM and 100 μM), the “GLT-1 protein expression (Western blotting)” value is “did not alter”. The “GLT-1 expression in the hippocampus (qualitative confocal microscopy)” value with GLT-1 [3] (100 mg/kg i.p. BID for 7 days) was “did not alter”. In the data set on EAAT1, the “interaction with EAAT1” value is reported as “does not interact”. For the same molecule, in the data set with EAAT3, the “interaction with EAAT3” value is recorded as “does not interact”. In addition, the “HPD count as percent of baseline (peak effect)” value in data set [8] was 52.81 ± 13.45% and ~ 50%. In addition, the TD50 at […] in “Minimal motor impairment” (female) was over 500 mg/kg. In “Minimal motor impairment” (male), the TD50 at 0.5 h worked out at 254 mg/kg. Besides, the “N/F with adverse effects, TOX (MMI)” value in data set [9] (female rats, 500 mg/kg, […]) is on record as 2/8; in [9] (male rats, 300 mg/kg, 1 h) it was 1/8; in [9] (male rats, 300 mg/kg, […]), 1/8. Moreover, the “abnormal gait, animals affected / tested” value in data set [9] (female rats, 500 mg/kg, […]) is reported as 3/8. In [9] (female rats, 500 mg/kg, […]), the “tremors, animals affected / tested” value is recorded as 6/8. In addition, the “slight ataxia, share of rats” value in [9] (female rats, 500 mg/kg, at 0.5 h and 1 h) came to 12.5%. Moreover, the “adverse events at later time points (Irwin test)” value in [10] (300 mg/kg, 2, 4, and 24 h) is listed as “no adverse events”. For the same molecule, the “staggering, share of rats (Irwin test)” value in data set [10] (300 mg/kg, 0.5 h, 1/4) came out at 25%; in [10] (300 mg/kg, 1 h, 2/4), 50%. Also, the “ataxia, share of rats (Irwin test)” value in data set [10] (300 mg/kg, 0.5 h, 2/4) turned out to be 50%; in data set [10] (300 mg/kg, 1 h, 1/4) it was 25%. Further, the “anesthesia, share of rats (Irwin test)” value in [10] (300 mg/kg, […], 2 rats out of 4) was determined as 50%. Further, the “tolerability in the Irwin test” value in [10] (doses of 100, 150, and 250 mg/kg, all time points) is “very well tolerated”. The “GLT-1 protein expression in brain lysates (quantitative Western blot)” value in the data set with GLT-1 [4] (100 mg/kg i.p. BID for 7 days) was “did not show any alteration”.
Regarding `CO/N=C(\C(=O)N[C@@H]1C(=O)N2C(C(=O)O)=C(CSc3nc(=O)c(=O)[nH]n3C)CS[C@H]12)c1csc(N)n1` [ceftriaxone, reference compound], the “GLT-1 protein expression (Western blotting)” value in the data set with GLT-1 [7] (1 mM) is reported as “significantly increased”.
As for `CC[C@@H](C(N)=O)N1CCCC1=O` [Levetiracetam], the “effect in the TMEV model” value in the data set with TMEV-induced seizures is reported as “significantly reduced seizure burden”.
Take `Nc1nnc(-c2cccc(Cl)c2Cl)c(N)n1` [Lamotrigine]: the “effect in the TMEV model” value in the data set on TMEV-induced seizures is listed as “ineffective”. For the same molecule, the “PI, CKM (reference ASMs)” value with corneal kindled seizures [2] is given as 1.0.
